We go through one molecule from patent US20220135564A1, “DEUTERATED MITRAGYNINE ANALOGS AS SAFER OPIOID MODULATORS IN THE MITRAGYNINE CLASS” (The Trustees of Columbia University in the City of New York, priority 2019, published 2022).

Counter-ions that a name gives are not always drawn.

Series [1] has as its system mice (129Sv6 or CD-1 strain). Description: Lethality assay in mice. It is filed as in vivo, mouse. Particulars: s.c., lethality 24 h after administration. Here is the method:
Lethality Assay. Groups of mice (n=6 per dose, 129Sv6 or CD-1 strain) were treated subcutaneously (s.c.) with different doses of DHM and tested for lethality 24 h after drug administration.

The subject of the next series is mice. Description: Analgesic activity of DHM in mice. It is filed as in vivo, mouse.
Series [2] in a line: Metabolic profiling of DHM in mouse liver S9 fraction (MS9). Format: in vitro ADME. Particulars: DHM 10 μM, MS9, 60-min incubation, positive ion mode. As for the experimental part: Analytical System. The metabolic profiling of DHM in mouse liver S9 fraction was performed using high performance liquid chromatography-tandem mass spectrometry (HPLC-MS/MS). A Shimadzu HPLC system comprising 2 isocratic pumps (LC-10ADvp), an autosampler (SIL-30ACMP), a system controller (CBM-20A), a high-pressure switching valve (FCV-20AH6), and a degasser (DGU-14A) was used for separations. Mass spectrometric analyses were performed using an API 4000 QTRAP mass spectrometer from Applied Biosystems/MDS Sciex (AB Sciex) with Turbo V ion source and TurboIonspray interface. Data acquisition and system control was performed using Analyst 1.6.3 software from AB Sciex.
Liver S9 Incubations. Liver S9 fraction pooled from male CD-1 mice was used. Incubations were carried out in 1.1 mL microtubes (in 96-well format plate) in aliquots of 40 μL each (2 for each time point; 0, 6, 16, 30, and 60 min). […] Control incubations were performed replacing the cofactor system with phosphate buffer. Test compound DHM (10 μM, final solvent concentration 1.6%) was incubated with S9 at 37° C., shaking at 100 rpm. Incubations were performed in duplicate. Five time points over 60 minutes (0, 6, 16, 30, and 60 min) were analyzed. […] Supernatants (two time points, 0 and 60 min) were analyzed for remaining parent compound and putative metabolites by HPLC-MS/MS.
General Strategy for Identification of Metabolites. […]

For a further series, the system named is male mice (C57BL/6J). Description: Rotarod test in mice (motor coordination). Format: in vivo, mouse. Particulars: male C57BL/6J mice, s.c., cumulative 3, 10, 30 mg/kg, compared to vehicle. As for the experimental part: The rotarod test is useful for measuring the motor coordination of rodents and therefore, for identifying test drugs that induce ataxic effects. 3-Dehydromitragynine (DHM) reduces the performance of mice in this test in a dose-dependent manner; indicating an impairment of motor coordination by this compound (FIG. 1).
Animals. This study was conducted using male C57BL/6J mice, 7 weeks of age (n=10/treatment), purchased from The Jackson Laboratory (Bar Harbor, Me.). Animals were housed in groups of five and allowed to acclimate for 1 week prior to testing. Mice had ad libitum access to food and water and were maintained on a 12-hour light/dark cycle. All testing was done in the light cycle.
Drug. DHM hydrochloride was dissolved in double-distilled H2O containing 10% N-methyl-2-pyrrolidone (NMP). Drug or vehicle was administered subcutaneously 15 minutes prior to the start of behavioral testing at a volume of 10 mL/kg body weight. Dosing was performed cumulatively at 3, 10, and 30 mg/kg, with 1 hour between injections.
Rotarod Testing. On the test day, animals were acclimated to the testing room for 1 hour. An accelerating rotarod (Model 7650, UGO Basile, Comeria, VA, Italy) was used to measure the motor coordination of the animals. Time on the rotarod was measured by stopwatch, starting when animals were placed on the rod and ending at the time the animal fell off the apparatus. […]

Take `CC[C@@H]1C[N+]2=C(C[C@@H]1/C(=C\OC)C(=O)OC)c1[nH]c3cccc(OC)c3c1CC2` [DHM, 3-Dehydromitragynine hydrochloride]: the “LD50 (95% confidence interval)” value in series [1] (129Sv6 mice) is listed as 48.4 (71.27-342.3) mg/kg; in series [1] (CD-1 mice) it was 74 (48.08-120.5) mg/kg. The “analgesic activity on its own” value in the series on mice is given as “does not exhibit analgesic activity”. Moreover, the “% Area” value in series [2] came to 20%. Also, the “motor coordination, latency to fall in the rotarod test” value with male mice (C57BL/6J) is “dramatically impairs motor coordination”.
